Values quoted from earlier work as cited in publication PMC11859340, “The Therapeutic Potential of Spirooxindoles in Cancer: A Focus on p53–MDM2 Modulation” (Pharmaceuticals, 2025).
Like-named read-outs stand apart in the source and are kept apart here.

Legend:
[1] = system: HCT116 (p53^−/−); parameters: method as in PMID 28987608; settings: MTT; read-out: IC50 against HCT116 (p53^−/−)
[2] = system: HCT116 (p53^+/+); parameters: method as in PMID 28987608; settings: MTT; read-out: IC50 against HCT116 (p53^+/+)
[3] = system: MDA-MB-231 (breast); parameters: method as in PMID 28987608; settings: MTT; read-out: IC50 against MDA-MB-231
[4] = system: MCF7; parameters: method as in PMID 28987608; settings: MTT; read-out: IC50 against MCF7
[5] = system: HEK 293T (embryonic kidney non-cancer); parameters: method as in PMID 28987608; settings: MTT, read-out: IC50 against HEK 293T
[6] = system: LNCaP (p53+); parameters: method as in PMID 30735387; settings: MTT; read-out: IC50 against LNCaP (p53+)
[7] = system: PC-3 (p53−); parameters: method as in PMID 30735387; settings: MTT; read-out: IC50 against PC-3 (p53−)
[8] = system: MCF7 (breast) cancer cell line; parameters: method as in doi:10.1016/j.molstruc.2023.137026
[9] = system: HepG-2 (liver); parameters: method as in PMID 34970530; settings: MTT; read-out: IC50 against HepG-2
[10] = system: MCF7 (breast); parameters: method as in PMID 26256638; settings: MTT; read-out: IC50 against MCF7
[11] = system: MDA-MB231 (breast); parameters: method as in PMID 34970530; settings: MTT; read-out: IC50 against MDA-MB231
[12] = system: Caco-2 (colon); parameters: method as in PMID 34970530; settings: MTT; read-out: IC50 against Caco-2
[13] = system: PC3; parameters: method as in doi:10.3390/separations10040225; settings: MTT; read-out: IC50 against PC3
[14] = system: MDA-MB-231; parameters: method as in doi:10.3390/separations10040225; settings: MTT; read-out: IC50 against MDA-MB-231
[15] = molecular target: MDM2; parameters: method as in doi:10.3390/separations10040225; settings: MST; read-out: KD, MST binding affinity for MDM2
[16] = system: HeLa (cervical); parameters: method as in PMID 37935912; settings: SRB; read-out: IC50 against HeLa

O=C1Nc2ccc(Br)cc2C12N(c1ccccc1Cl)N=C(c1cccc(Cl)c1)N2c1cccc(Cl)c1 (stereo not shown)
IC50 [1]: 17.7 ± 1.3 µM
IC50 [2]: 13.9 ± 1.1 µM
IC50 [3]: 7.6 ± 2.4 µM
IC50 [4]: 9.5 ± 3.1 µM
IC50 [5]: 21.4 ± 7.4 µM

O=C1Nc2ccc(Cl)cc2C12N(c1ccccc1)N=C(c1ccccc1)N2c1cccc(Cl)c1 (stereo not shown)
IC50 [1]: 17.9 ± 0.6 µM
IC50 [2]: 16.3 ± 0.2 µM
IC50 [3]: 8.9 ± 1.9 µM
IC50 [4]: 9.8 ± 1.5 µM
IC50 [5]: > 100 µM

COC(=O)C1([N+](=O)[O-])C[C@@H](c2ccccc2)N(c2ccccc2)[C@]12C(=O)Nc1ccccc12 (stereo partly shown)
IC50 [6]: 6.2 to 7.9 µM
IC50 [7]: 6.8 to 8.5 µM

CCCN1C(=O)[C@]2(N[C@@H](c3ccc(F)cc3)[C@@]3(Sc4c(C(=O)C(=O)OC)c5ccccc5n4C3=O)[C@H]2C(=O)OC)c2ccc(Cl)cc21
cell viability ([8]; MCF7, at 25 μg/mL): about 80%

CCCN1C(=O)[C@]2(N[C@@H](c3ccccc3)[C@@]3(Sc4c(C(=O)C(=O)OC)c5ccccc5n4C3=O)[C@H]2C(=O)OC)c2ccc(Cl)cc21
cell viability ([8]; MCF7, at 200 μg/mL): 80%

O=c1[nH]cc(F)c(=O)[nH]1 [5-fluorouracil]
IC50 [9]: 4.83 ± 0.296 µM
IC50 [10]: 10.5 ± 1.6 µM
IC50 [11]: 7.05 ± 0.204 µM
IC50 [12]: 1050 ± 156 nM

O=C(c1nc2ccccc2[nH]1)[C@H]1[C@H](c2ccc(Cl)cc2)C2CC3CCCCC3N2[C@]12C(=O)Nc1ccc(Cl)cc12 (stereo partly shown) [39 (R = 4-ClC6H4)]
IC50 [13]: 4.574 ± 0.011 µM
IC50 [14]: 4.76 ± 0.069 µM
Kd [15]: 2380 nM

O=C1c2ccccc2OC12C(c1ccc(Cl)cc1)C1CCCCN1C21C(=O)Nc2ccccc21 (stereo not shown) [77 (R = H)]
IC50 [16]: 2500 ± 300 nM
